Measurements from patent US20230382923A1, “FUSED TETRACYCLIC QUINAZOLINE DERIVATIVES AS INHIBITORS OF ERBB2” (EnLiven Therapeutics, Inc., priority 2021, published 2023).
Counter-ions that a name gives are not always drawn. Like-named read-outs stand apart in the source and are kept apart here.

Columns and labels:
[1] = biological target: phosphorylated ERBB2 (pERBB2) (Homo sapiens (Human), UniProt P04626); assay: Detection of phosphorylated ERBB2 (pERBB2) by ELISA in BT-474 cells; format: cell-based; details: four hours incubation with compound
Sequence of phosphorylated ERBB2 (pERBB2) (P04626 23-1255): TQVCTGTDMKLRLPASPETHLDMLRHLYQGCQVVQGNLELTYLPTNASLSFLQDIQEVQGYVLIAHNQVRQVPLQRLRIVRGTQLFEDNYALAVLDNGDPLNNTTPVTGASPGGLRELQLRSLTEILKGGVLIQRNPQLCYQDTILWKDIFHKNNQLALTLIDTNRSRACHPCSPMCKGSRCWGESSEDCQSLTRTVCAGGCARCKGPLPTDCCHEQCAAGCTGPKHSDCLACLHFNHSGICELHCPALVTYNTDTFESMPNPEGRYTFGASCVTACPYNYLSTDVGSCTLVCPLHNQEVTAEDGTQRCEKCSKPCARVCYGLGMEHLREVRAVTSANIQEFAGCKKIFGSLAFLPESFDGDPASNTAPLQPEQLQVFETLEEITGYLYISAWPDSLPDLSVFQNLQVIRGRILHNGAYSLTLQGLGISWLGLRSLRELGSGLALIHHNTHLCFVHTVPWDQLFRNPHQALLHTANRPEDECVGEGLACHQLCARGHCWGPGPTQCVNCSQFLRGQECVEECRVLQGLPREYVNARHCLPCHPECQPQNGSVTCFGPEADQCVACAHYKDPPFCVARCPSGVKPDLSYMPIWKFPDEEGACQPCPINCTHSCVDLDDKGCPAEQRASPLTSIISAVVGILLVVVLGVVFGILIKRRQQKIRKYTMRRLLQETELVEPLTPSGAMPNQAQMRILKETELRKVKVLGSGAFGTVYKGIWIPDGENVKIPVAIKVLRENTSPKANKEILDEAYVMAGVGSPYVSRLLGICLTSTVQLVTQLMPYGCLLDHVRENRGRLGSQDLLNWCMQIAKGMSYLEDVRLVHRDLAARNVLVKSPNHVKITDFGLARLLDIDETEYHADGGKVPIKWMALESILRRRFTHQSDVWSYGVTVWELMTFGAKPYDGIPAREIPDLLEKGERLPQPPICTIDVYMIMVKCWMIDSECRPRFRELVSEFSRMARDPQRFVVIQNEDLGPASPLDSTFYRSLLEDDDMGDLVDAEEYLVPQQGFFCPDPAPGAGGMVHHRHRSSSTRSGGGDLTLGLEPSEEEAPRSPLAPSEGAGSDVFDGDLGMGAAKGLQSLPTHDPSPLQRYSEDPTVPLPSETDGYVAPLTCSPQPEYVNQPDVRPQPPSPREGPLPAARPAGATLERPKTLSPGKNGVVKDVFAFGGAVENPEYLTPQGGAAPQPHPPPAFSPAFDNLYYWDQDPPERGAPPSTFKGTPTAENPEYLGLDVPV
Method in brief: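 BT-474 cells were exposed to serially diluted compounds for 4 h at 37 °C, then lysed. Phospho-ERBB2 in lysates was captured by ELISA and detected with an HRP anti-phosphotyrosine antibody and TMB.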

[2] = biological target: phosphorylated EGFR (pEGFR) (Homo sapiens (Human), UniProt P00533); assay: Detection of phosphorylated EGFR (pEGFR) by AlphaLISA in A431 cells; format: cell-based; details: A431 cells (10% FBS), 4 hours incubation, EGF 30 ng/mL for 10 minutes
Sequence of phosphorylated EGFR (pEGFR) (P00533 25-1210): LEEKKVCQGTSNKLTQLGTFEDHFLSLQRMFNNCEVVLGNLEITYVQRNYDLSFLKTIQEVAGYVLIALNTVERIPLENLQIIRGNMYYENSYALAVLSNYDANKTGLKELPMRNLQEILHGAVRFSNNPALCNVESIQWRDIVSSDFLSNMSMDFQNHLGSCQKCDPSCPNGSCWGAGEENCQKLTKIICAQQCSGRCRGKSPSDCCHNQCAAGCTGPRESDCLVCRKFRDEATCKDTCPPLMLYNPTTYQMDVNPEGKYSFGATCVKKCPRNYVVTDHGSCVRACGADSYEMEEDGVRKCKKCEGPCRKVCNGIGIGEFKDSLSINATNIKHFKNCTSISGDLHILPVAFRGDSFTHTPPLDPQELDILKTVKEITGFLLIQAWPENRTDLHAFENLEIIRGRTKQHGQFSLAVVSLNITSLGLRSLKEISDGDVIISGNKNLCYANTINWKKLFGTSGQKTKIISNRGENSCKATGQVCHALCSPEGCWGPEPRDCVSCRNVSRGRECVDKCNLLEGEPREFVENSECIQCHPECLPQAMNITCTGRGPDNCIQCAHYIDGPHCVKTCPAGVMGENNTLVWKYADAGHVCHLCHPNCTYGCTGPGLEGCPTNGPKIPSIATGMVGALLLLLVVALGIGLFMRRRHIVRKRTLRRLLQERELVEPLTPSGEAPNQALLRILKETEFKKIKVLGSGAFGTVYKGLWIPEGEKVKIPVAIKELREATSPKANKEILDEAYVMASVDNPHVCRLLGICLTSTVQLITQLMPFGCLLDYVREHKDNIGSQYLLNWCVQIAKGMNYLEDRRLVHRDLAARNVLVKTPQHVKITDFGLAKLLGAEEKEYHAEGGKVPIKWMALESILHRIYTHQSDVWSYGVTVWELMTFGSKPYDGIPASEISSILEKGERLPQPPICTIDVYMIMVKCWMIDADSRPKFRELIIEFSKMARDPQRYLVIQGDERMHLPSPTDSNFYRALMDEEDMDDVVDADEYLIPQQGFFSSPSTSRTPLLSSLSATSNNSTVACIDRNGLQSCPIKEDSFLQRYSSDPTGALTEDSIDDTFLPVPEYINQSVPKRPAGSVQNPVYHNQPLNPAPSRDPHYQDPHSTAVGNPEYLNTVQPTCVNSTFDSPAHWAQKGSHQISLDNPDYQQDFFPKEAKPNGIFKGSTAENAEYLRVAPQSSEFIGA
Method in brief: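 A431 cells in 10% FBS exposed to compound for 4 h at 37 °C, then stimulated 10 min with 30 ng/mL EGF. Lysates assayed for phospho-EGFR by AlphaLISA. % inhibition relative to DMSO and staurosporine controls; IC50 from four-parameter curve fit.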

Ba/F3 ERBB2 YVMA = assay: Cell viability assay (CellTiter Glo, 72 hours); format: cell-based, mouse
Experimental: Cells were treated with compounds, and cell viability was measured as a metric of kinase inhibition.
BT-474, A431, MDA-MB-175VII, NCI-H1781, MCF7, and Ba/F3 cell lines were tested. The Ba/F3 cell line is IL-3-dependent mouse cell line derived from the C3H mouse strain. Ba/F3 cell lines were engineered to express human ERBB2 or EGFR kinases, rendering the cells IL-3 independent. The lines were generated via retroviral transduction utilizing a Moloney murine leukemia virus (MMLV) promoter, and constructs are stably integrated into the cell genome. The sequences of the ERBB2 and EGFR genes used were NCBI Reference Sequences NM_004448.3 and NM_005228.3, respectively.
BT-474, A431, MDA-MB-175VII, NCI-H1781 and MCF7 cells were grown in the appropriate growth medium as described in Table B2 below, and harvested at 50-80% confluence. BT-474, A431, MDA-MB-175VII, NCI-H1781 and MCF7 cells were counted and seeded at 2,000 or 1,500 cells per well in 384-well tissue culture plates (see Table B2). Similarly, Ba/F3 cell lines engineered to express EGFR, ERBB2, or ERBB2 mutants were grown, harvested, counted and seeded at 3000 cells per well in 96-well plates. A subset of wells contained media only (low control, “LC”).
Table B1 provides the growth media and number of cells seeded per well for the each cell line.
Compounds were dissolved in DMSO and serially diluted. Serially-diluted compound or a DMSO only control (high control, “HC”) was added to the plated cells in each well. Compounds were tested at concentrations of about 10 μM to 0.51 nM, using three-fold dilutions. The final proportion of DMSO never exceeded 0.1%.
Plates were placed in a 37° C., 5% CO2 incubator for 72 hours. Plates were then removed from the incubator and equilibrated for 15 minutes at room temperature. 40 μl of CellTiter Glo reagent (Promega) was added to measure the relative level of metabolically active cells by quantifying intracellular ATP concentrations. Plates were incubated for 30 minutes at room temperature, and luminescence was measured. Percent viability was normalized to a vehicle control only using the following formula: % viability=100×(LumSample−LumLC)/(LumHC−LumLC). Graphical curves were fitted using a nonlinear regression model with a sigmoidal dose response.

[3] = Mus musculus, BaF3, 72 h, read-out: Ba/F3 ERBB2 YVMA, IC50, nM
[4] = Mus musculus, BaF3, 72 h, Ba/F3 cells engineered to express human ERBB2 YVMA mutant, 72 hours, CellTiter Glo viability, read-out: Ba/F3 ERBB2 YVMA, IC50

IC50 (Ba/F3 ERBB2 YVMA; [4]) [nM]	IC50 (Ba/F3 ERBB2 YVMA; Ba/F3 cells engineered to express human ERBB2 YVMA mutant, 72 hours, CellTiter Glo viability, read-out: Ba/F3 ERBB2 YVMA, IC50) [nM]	SMILES	IC50 [1] [nM]	IC50 [2] [nM]	IC50 (Ba/F3 ERBB2 YVMA; [3]) [nM]
		CNC/C=C/C(=O)N1CCN2CC1COc1cc3ncnc(Nc4ccc(Oc5ccn6ncnc6c5)c(C)c4)c3nc12 (stereo in doubt) [Compound 37, (E)-1-((10S)-4-((4-([1,2,4]triazolo[1,5-a]pyridin-7-yloxy)-3-methylphenyl)amino)-7,8,10,11-tetrahydro-9H-6,10-methanopyrimido[4′,5′:5,6]pyrido[3,2-b][1,4,7]oxadiazonin-9-yl)-4-(methylamino)but-2-en-1-one formate]	28	3620	52.3
		C=CC(=O)N1CCN2CC1COc1cc3ncnc(Nc4ccc(Oc5ccn6ncnc6c5)c(C)c4)c3cc12 (stereo in doubt) [Compound 4, 1-((10S)-4-((4-([1,2,4]triazolo[1,5-a]pyridin-7-yloxy)-3-methylphenyl)amino)-7,8,10,11-tetrahydro-9H-6,10-methano[1,4,7]oxadiazonino[3,2-g]quinazolin-9-yl)prop-2-en-1-one]	7.36	1860	8.63
10.5		Cc1cc(Nc2ncnc3cc4c(nc23)N2CCN(C(=O)/C=C/[C@H](C)N(C)C)C(CO4)C2)ccc1Oc1ccn2ncnc2c1 (stereo in doubt) [Compound 30, (4S,E)-1-((10S)-4-((4-([1,2,4]triazolo[1,5-a]pyridin-7-yloxy)-3-methylphenyl)amino)-7,8,10,11-tetrahydro-9H-6,10-methanopyrimido[4′,5′:5,6]pyrido[3,2-b][1,4,7]oxadiazonin-9-yl)-4-(dimethylamino)pent-2-en-1-one]	10.6	> 10000	
		C=CC(=O)N1CCN2CC1COc1cc3ncnc(Nc4ccc(Oc5ccc6c(c5)ncn6C)c(C)c4)c3nc12 (stereo in doubt) [Compound 14, 1-((10S)-4-((3-methyl-4-((1-methyl-1H-benzo[d]imidazol-5-yl)oxy)phenyl)amino)-7,8,10,11-tetrahydro-9H-6,10-methanopyrimido[4′,5′:5,6]pyrido[3,2-b][1,4,7]oxadiazonin-9-yl)prop-2-en-1-one]	43.8	532	21.6
		[2H]C([2H])([2H])N(C/C=C/C(=O)N1CCN2CC1COc1cc3ncnc(Nc4cc(C)c(Oc5ccn6ncnc6c5)cc4F)c3nc12)C([2H])([2H])[2H] (stereo in doubt) [Compound 46, (E)-1-((10S)-4-((4-([1,2,4]triazolo[1,5-a]pyridin-7-yloxy)-2-fluoro-5-methylphenyl)amino)-7,8,10,11-tetrahydro-9H-6,10-methanopyrimido[4′,5′:5,6]pyrido[3,2-b][1,4,7]oxadiazonin-9-yl)-4-(bis(methyl-d3)amino)but-2-en-1-one]	6.84	2470	7.04
	> 500	Cc1cc(Nc2ncnc3cc4c(nc23)N2CCCN(C(=O)/C=C/CN(C)C)C(CO4)C2)ccc1Oc1ccn2ncnc2c1 (single isomer, unassigned) [Example S55, Enantiomer 2, (E)-1-(4-((4-([1,2,4]triazolo[1,5-a]pyridin-7-yloxy)-3-methylphenyl)amino)-8,9,11,12-tetrahydro-6,11-methanopyrimido[4′,5′:5,6]pyrido[3,2-b][1,4,8]oxadiazecin-10 (7H)-yl)-4-(dimethylamino)but-2-en-1-one Enantiomer 2]		> 10000	
		C=CC(=O)N1CCN2CC1COc1cc3ncnc(Nc4ccc(Oc5ccc(C)nc5)c(C)c4)c3nc12 (stereo in doubt) [Compound 20, 1-((10S)-4-((3-methyl-4-((6-methylpyridin-3-yl)oxy)phenyl)amino)-7,8,10,11-tetrahydro-9H-6,10-methanopyrimido[4′,5′:5,6]pyrido[3,2-b][1,4,7]oxadiazonin-9-yl)prop-2-en-1-one]	21.1	192	5.28
		C=CC(=O)N1CCN2CC1COc1cc3ncnc(Nc4ccc(Oc5ccn6ccnc6c5)c(C)c4)c3nc12 (stereo in doubt) [Compound 33, 1-((10S)-4-((4-(imidazo[1,2-a]pyridin-7-yloxy)-3-methylphenyl)amino)-7,8,10,11-tetrahydro-9H-6,10-methanopyrimido[4′,5′:5,6]pyrido[3,2-b][1,4,7]oxadiazonin-9-yl)prop-2-en-1-one]	16.8	164	12
		C=CC(=O)N1CCN2CC1COc1cc3ncnc(Nc4ccc(Oc5ccn6ncnc6c5)c(C)c4)c3cc12 (stereo in doubt) [Compound 5, 1-((10R)-4-((4-([1,2,4]triazolo[1,5-a]pyridin-7-yloxy)-3-methylphenyl)amino)-7,8,10,11-tetrahydro-9H-6,10-methano[1,4,7]oxadiazonino[3,2-g]quinazolin-9-yl)prop-2-en-1-one]	1200	> 10000	304
		[2H]C([2H])([2H])N(C/C=C/C(=O)N1CCN2CC1COc1cc3ncnc(Nc4ccc(Oc5ccn6ncnc6c5)c(C)c4)c3nc12)C([2H])([2H])[2H] (stereo in doubt) [Compound 36, (E)-1-((10S)-4-((4-([1,2,4]triazolo[1,5-a]pyridin-7-yloxy)-3-methylphenyl)amino)-7,8,10,11-tetrahydro-9H-6,10-methanopyrimido[4′,5′:5,6]pyrido[3,2-b][1,4,7]oxadiazonin-9-yl)-4-(bis(methyl-d3)amino)but-2-en-1-one formic acid]	9.92	1620	6.19
> 500		CC#CC(=O)N1CCN2CC1COc1cc3ncnc(Nc4ccc(Oc5ccn6ncnc6c5)c(C)c4)c3cc12 (stereo in doubt) [Compound 17, 1-((10R)-4-((4-([1,2,4]triazolo[1,5-a]pyridin-7-yloxy)-3-methylphenyl)amino)-7,8,10,11-tetrahydro-9H-6,10-methano[1,4,7]oxadiazonino[3,2-g]quinazolin-9-yl)but-2-yn-1-one]	1050	> 10000	
		CCc1ccc(Oc2ccc(Nc3ncnc4cc5c(nc34)N3CCN(C(=O)/C=C/CN(C)C)C(CO5)C3)cc2C)cn1 (stereo in doubt) [Compound 38, (E)-4-(dimethylamino)-1-((10S)-4-((4-((6-ethylpyridin-3-yl)oxy)-3-methylphenyl)amino)-7,8,10,11-tetrahydro-9H-6,10-methanopyrimido[4′,5′:5,6]pyrido[3,2-b][1,4,7]oxadiazonin-9-yl)but-2-en-1-one formic acid]	126	3080	11.8
		C=CC(=O)N1CCN2CC1COc1cc3ncnc(Nc4ccc(Oc5ccc(CC)nc5)c(C)c4)c3nc12 (stereo in doubt) [Compound 22, 1-((10S)-4-((4-((6-ethylpyridin-3-yl)oxy)-3-methylphenyl)amino)-7,8,10,11-tetrahydro-9H-6,10-methanopyrimido[4′,5′:5,6]pyrido[3,2-b][1,4,7]oxadiazonin-9-yl)prop-2-en-1-one]	70	684	56.1
> 500		Cc1cc(Nc2ncnc3cc4c(cc23)N2CCN(C(=O)/C=C/CN(C)C)C(CO4)C2)ccc1Oc1ccn2ncnc2c1 (stereo in doubt) [Compound 8, (E)-1-((10R)-4-((4-([1,2,4]triazolo[1,5-a]pyridin-7-yloxy)-3-methylphenyl)amino)-7,8,10,11-tetrahydro-9H-6,10-methano[1,4,7]oxadiazonino[3,2-g]quinazolin-9-yl)-4-(dimethylamino)but-2-en-1-one]	547	> 10000	
